In paper PMC8482815, “Targeting Host Glycolysis as a Strategy for Antimalarial Development” (Frontiers in Cellular and Infection Microbiology, 2021):
Values joined by “and” are separate entries in the source; they are usually repeats but may differ in a detail not shown here. Equal entries are not always repeated.

System: human erythrocytes
Assay: Untargeted metabolomics and 13C-glucose tracing of enolase inhibitor treated erythrocytes
Type: cell-based
Settings: 6h
Protocol: Freshly collected erythrocytes were washed, resuspended to 10% hematocrit in buffer [25mM HEPES (pH 7.4), 120mM NaCl, 5.4mM KCl, 1.8mM CaCl2, and 1mM NaH2PO4], incubated for 1 hour at 37°C, then centrifuged at 2000xg for 5 minutes at 4°C, resuspended in fresh wash buffer to 30-40% hematocrit, and split into 210µL aliquots of packed erythrocytes. […] All samples were incubated at 37°C shaking at 500 RPM. Triplicate samples of supernatants and packed erythrocytes were collected at 0, 0.5, 1, and 6-hour intervals and snap-frozen in liquid N2.
RBC and media samples were extracted at 1:10 and 1:20 dilutions, respectively, in 5:3:2 MeOH : MeCN:H2O v/v/v, and supernatants analyzed on a Thermo Vanquish UHPLC coupled to a Thermo Q Exactive mass spectrometer, as extensively described ([Nemkov et al., 2015]; [Nemkov et al., 2017]). The extraction buffer was supplemented with 40uM 3-^13C lactate to allow absolute quantification of lactate isotopologues, including lactate generated via glycolysis ([1,2,3-^13C3] enriched) vs. the pentose phosphate pathway ([2,3-^13C2] enriched), as described ([Reisz et al., 2016]). Metabolite assignments, peak area integration and isotopologues distributions were determined using Maven (Princeton University) ([Nemkov et al., 2015]; [Nemkov et al., 2017]).
Data were auto-scaled and normalized to zero-hour time points. Metabolites were removed from the dataset if greater than 50% of the samples contained missing values or the relative standard deviation among replicates exceeded 25%. Additionally, data was filtered using the interquartile range to reduce near-constant values from the experiment by 5%.
A principal component analysis of preprocessed data was plotted with the 95% confidence interval minimum volume enclosing ellipsoid for each respective group (MetaboAnalyst, cluster, plotly). A two-way repeated measures analysis of variance (ANOVA) was performed with multiple comparisons corrected for using a false discovery rate p-value cutoff of 0.05. Metabolite-Pathway analysis was performed using the R package of MetaboAnalyst, as previously described ([Xia and Wishart, 2010]). Metabolite-Protein nodal analysis was performed using omicsnet.ca and as previously described ([Zhou and Xia, 2018]).

[1] = treated erythrocytes, one value per replicate sample, polarity +
[2] = treated erythrocytes, one value per replicate sample, polarity -
[3] = treated erythrocytes, replicate samples

With `CC(C)(C)C(=O)OCOP(=O)(OCOC(=O)C(C)(C)C)C1CCCN(O)C1=O` (stereo not shown) [POMHEX] the “AMP level (metabolomics signal)” value (replicate samples) was 3.72E+05 and 4.97E+05 and 4.88E+05, the “ATP level (metabolomics signal)” value (replicate samples) was 1.06E+05 and 4.51E+04 and 2.86E+04 and the “Adenine level (metabolomics signal)” value (replicate samples) was 1.10E+05 and 1.13E+05 and 1.03E+05. For the same compound, the “Cytosine level (metabolomics signal)” value (replicate samples) was 0.00E+00, the “L-alanine level (metabolomics signal)” value (replicate samples) was 7.74E+06 and 6.77E+06 and 7.99E+06 and the “L-arginine level (metabolomics signal)” value (replicate samples) was 4.96E+06 and 6.71E+06 and 3.72E+06. For the same compound, the “L-asparagine level (metabolomics signal)” value (replicate samples) was 5.50E+06 and 5.88E+06 and 6.25E+06, the “L-aspartate level (metabolomics signal)” value (replicate samples) was 1.08E+07 and 1.19E+07 and 1.12E+07 and the “L-cysteine level (metabolomics signal)” value (replicate samples) was 4.98E+05 and 5.97E+05 and 1.05E+06. For the same compound, the “L-glutamate level (metabolomics signal)” value (replicate samples) was 5.99E+06 and 6.14E+06 and 6.66E+06, the “L-glutamine level (metabolomics signal)” value (replicate samples) was 6.37E+07 and 6.26E+07 and 6.35E+07 and the “L-histidine level (metabolomics signal)” value (replicate samples) was 1.60E+06 and 1.47E+06 and 1.87E+06. The “L-isoleucine level (metabolomics signal)” value (replicate samples) was 1.28E+07 and 1.42E+07 and 1.14E+07, the “L-leucine level (metabolomics signal)” value (replicate samples) was 1.47E+08 (2×) and 1.27E+08 and the “L-lysine level (metabolomics signal)” value (replicate samples) was 1.47E+06 and 1.24E+06 and 1.45E+06. The “L-methionine level (metabolomics signal)” value (replicate samples) was 1.56E+07 and 1.66E+07 and 1.27E+07, the “L-phenylalanine level (metabolomics signal)” value (replicate samples) was 7.06E+06 and 6.50E+06 and 4.97E+06 and the “L-proline level (metabolomics signal)” value (replicate samples) was 6.39E+07 and 5.46E+07 and 5.96E+07. For the same compound, the “L-serine level (metabolomics signal)” value (replicate samples) was 4.50E+06 and 4.60E+06 and 4.86E+06, the “L-threonine level (metabolomics signal)” value (replicate samples) was 8.82E+06 and 8.15E+06 and 8.77E+06 and the “L-tryptophan level (metabolomics signal)” value (replicate samples) was 1.85E+06 and 1.63E+06 and 1.27E+06. The “L-tyrosine level (metabolomics signal)” value (replicate samples) was 2.13E+07 and 2.30E+07 and 1.69E+07, the “L-valine level (metabolomics signal)” value (replicate samples) was 1.59E+08 and 1.62E+08 and 1.47E+08 and the “dCMP level (metabolomics signal)” value (replicate samples) was 1.62E+04 and 1.66E+04 and 1.35E+04. For the same compound, the “dTMP level (metabolomics signal)” value (replicate samples) was 1.10E+06 and 1.20E+06 and 9.63E+05, the “glycine level (metabolomics signal)” value (replicate samples) was 1.51E+06 and 1.66E+06 and 1.67E+06 and the “N-Acyl-D-aspartate (C06380) metabolite signal” value [1] was 6.16E+04 and 5.50E+04 and 5.26E+04. For the same compound, the “Poly-gamma-D-glutamate (C05723) metabolite signal” value [1] was 4.45E+07 and 4.25E+07 and 4.46E+07, the “D-Ribitol 5-phosphate (C01068) metabolite signal” value [2] was 1.15E+04 and 2.30E+04 and 2.25E+04 and the “D-glucono-1,5-lactone (C00198) metabolite signal” value [2] was 2.58E+05 and 2.64E+05 and 3.28E+05. The “L-Noradrenaline (C00547) metabolite signal” value [2] was 2.02E+04 and 2.76E+04 and 1.70E+04, the “Oxalosuccinate (C05379) metabolite signal” value [2] was 8.49E+04 and 8.94E+04 and 8.00E+04 and the “Pyridoxamine (C00534) metabolite signal” value [2] was 9.67E+03 and 8.58E+03 and 9.61E+03. For the same compound, the “Thioredoxin disulfide (C00343) metabolite signal” value [2] was 2.29E+04 and 2.69E+04 and 2.77E+04, the “1-4-beta-D-Xylan (metabolite signal)” value [3] was 1.64E+05 and 1.40E+05 and 1.93E+05 and the “2-Hydroxyglutarate/Citramalate (C02630) metabolite signal” value [3] was 7.84E+04 and 5.75E+04 and 5.66E+04. For the same compound, the “5-6-Dihydrothymine (C00906) metabolite signal” value [3] was 2.80E+05 and 2.87E+05 and 2.28E+05, the “5-10-Methenyltetrahydrofolate (metabolite signal)” value [3] was 1.54E+05 and 1.37E+05 and 1.05E+05 and the “5-Hydroxyisourate (C11821) metabolite signal” value [3] was 4.81E+06 and 4.49E+06 and 3.27E+06. The “5-L-Glutamyl-taurine (metabolite signal)” value [3] was 1.49E+05 and 1.28E+05 and 1.35E+05, the “5-Oxoproline (metabolite signal)” value [3] was 8.83E+05 and 1.09E+06 and 7.57E+05 and the “(S)(+)-Allantoin (C02350) metabolite signal” value [3] was 7.40E+03 and 8.26E+03 and 9.04E+03. The “Allantoate (C00499) metabolite signal” value [3] was 5.78E+05 and 5.92E+05 and 8.52E+05, the “Ascorbate (metabolite signal)” value [3] was 7.64E+04 and 9.21E+04 and 9.25E+04 and the “CMP-N-acetylneuraminate (metabolite signal)” value [3] was 2.55E+04 and 6.91E+03 and 6.08E+03. The “Carnosine (metabolite signal)” value [3] was 1.46E+05 and 1.52E+05 and 1.15E+05, the “Citrate (C00158) metabolite signal” value [3] was 2.76E+04 and 1.91E+04 and 1.57E+04 and the “Creatine (metabolite signal)” value [3] was 1.37E+08 and 1.42E+08 and 1.27E+08. For the same compound, the “Creatinine (metabolite signal)” value [3] was 2.18E+06 and 2.32E+06 and 1.85E+06, the “Cys-Gly (metabolite signal)” value [3] was 7.81E+05 and 5.57E+05 and 7.70E+05 and the “D-Glucosamine (metabolite signal)” value [3] was 3.33E+05 and 2.53E+05 and 2.71E+05. For the same compound, the “D-Glucose (C00031) metabolite signal” value [3] was 3.99E+06 and 4.57E+06 and 4.90E+06, the “D-Ribose (C00121) metabolite signal” value [3] was 1.11E+05 and 8.97E+04 and 8.43E+04 and the “Dehydroascorbate (metabolite signal)” value [3] was 3.57E+04 and 4.39E+04 and 4.65E+04. The “Dihydrofolate (metabolite signal)” value [3] was 1.44E+06 and 1.74E+06 and 1.87E+06, the “Dimethylglycine (metabolite signal)” value [3] was 6.87E+05 and 6.86E+05 and 5.98E+05 and the “Diphosphate (C00013) metabolite signal” value [3] was 2.84E+04 and 3.52E+04 and 3.86E+04. The “Fumarate (C00122) metabolite signal” value [3] was 9.00E+04 and 7.84E+04 and 7.19E+04, the “Glutathione (C00051) metabolite signal” value [3] was 4.59E+07 and 3.87E+07 and 4.33E+07 and the “Glutathione disulfide (metabolite signal)” value [3] was 3.00E+05 and 9.38E+04 and 7.81E+04. For the same compound, the “Hypoxanthine (C00262) metabolite signal” value [3] was 7.14E+03 and 5.93E+03 and 0.00E+00, the “IMP (C00130) metabolite signal” value [3] was 4.51E+04 and 3.74E+04 and 4.61E+04 and the “Inosine (C00294) metabolite signal” value [3] was 6.84E+04 and 6.73E+04 and 4.20E+04. The “L-Citrulline (metabolite signal)” value [3] was 2.71E+06 and 3.04E+06 and 2.48E+06, the “L-Homoserine (metabolite signal)” value [3] was 2.62E+05 and 3.31E+05 and 2.39E+05 and the “Lactate (C01432) metabolite signal” value [3] was 1.75E+07 and 2.07E+07 and 1.43E+07. The “Malate (C00149) metabolite signal” value [3] was 1.61E+05 and 9.39E+04 and 7.61E+04, the “Mannitol (C00392) metabolite signal” value [3] was 1.83E+05 and 1.22E+05 and 1.51E+05 and the “N-Acetylneuraminate (metabolite signal)” value [3] was 1.66E+04 and 1.46E+04 and 8.13E+03. For the same compound, the “N-Glycoloyl-neuraminate (metabolite signal)” value [3] was 7.64E+04 and 8.68E+04 and 1.14E+05, the “NAD+ (C00003) metabolite signal” value [3] was 5.29E+04 and 5.95E+04 and 9.85E+04 and the “Nicotinamide (C00153) metabolite signal” value [3] was 2.02E+07 and 2.16E+07 and 1.82E+07. The “Ornithine (metabolite signal)” value [3] was 1.75E+06 and 1.63E+06 and 1.64E+06, the “Oxaloacetate (C00036) metabolite signal” value [3] was 3.72E+04 and 4.43E+04 and 3.47E+04 and the “Phosphoserine (metabolite signal)” value [3] was 2.32E+04 and 2.57E+04 and 1.04E+04. The “Putrescine (metabolite signal)” value [3] was 4.24E+04 and 2.70E+04 and 3.11E+04, the “Pyridoxal (C00250) metabolite signal” value [3] was 4.26E+04 and 5.24E+04 and 7.64E+04 and the “Pyruvate (C00022) metabolite signal” value [3] was 2.17E+06 (2×) and 1.35E+06. The “S-Glutathionyl-L-cysteine (metabolite signal)” value [3] was 2.24E+05 and 8.00E+04 and 6.92E+04, the “Sedoheptulose 1-phosphate (C06222) metabolite signal” value [3] was 2.39E+04 and 1.32E+04 and 9.55E+03 and the “Spermidine (metabolite signal)” value [3] was 6.66E+06 and 5.53E+06 and 5.68E+06. For the same compound, the “Spermine (metabolite signal)” value [3] was 8.48E+06 and 7.61E+06 and 6.89E+06, the “Succinate (C00042) metabolite signal” value [3] was 3.87E+04 and 5.97E+04 and 7.05E+04 and the “Thymidine (C00214) metabolite signal” value [3] was 1.24E+04 and 9.43E+03 and 3.23E+03. The “UDP (C00015) metabolite signal” value [3] was 8.83E+04 and 9.94E+04 and 8.18E+04, the “UDP-N-acetyl-D-glucosamine (metabolite signal)” value [3] was 8.06E+03 and 2.61E+03 and 5.41E+03 and the “UDP-glucose (C00029) metabolite signal” value [3] was 9.76E+03 and 1.91E+03 and 5.75E+03. The “Urate (C00366) metabolite signal” value [3] was 3.58E+04 and 2.84E+04 and 2.03E+04, the “Xanthine (C00385) metabolite signal” value [3] was 7.82E+04 and 7.20E+04 and 8.31E+04 and the “alpha-D-Glucosamine 1-phosphate (metabolite signal)” value [3] was 9.63E+05 and 8.22E+05 and 5.48E+05. For the same compound, the “alpha-D-Ribose 1-phosphate (C00620) metabolite signal” value [3] was 4.34E+04 and 2.92E+04 and 1.97E+04, the “gamma-Glutamyl-gamma-aminobutyrate (metabolite signal)” value [3] was 5.87E+04 and 5.26E+04 and 3.36E+04 and the “gamma-L-Glutamyl-D-alanine (metabolite signal)” value [3] was 4.70E+04 and 4.49E+04 and 2.74E+04. For the same compound, the “gamma-L-Glutamyl-L-cysteine (metabolite signal)” value [3] was 4.20E+04 and 3.03E+04 and 3.96E+04.
